In general, Ki refers to the equilibrium dissociation constant of an inhibitor or competing ligand from its target. Higher therefore signals a looser hold on the target.

In one assay the target is T1, H3 receptors (Cavia porcellus, UniProt Q9JI35).
T1 construct: The source of the H3 receptors in this experiment was guinea pig brain; from tissue; host or cells: guinea pig brain membranes
T1 sequence (Q9JI35 whole entry): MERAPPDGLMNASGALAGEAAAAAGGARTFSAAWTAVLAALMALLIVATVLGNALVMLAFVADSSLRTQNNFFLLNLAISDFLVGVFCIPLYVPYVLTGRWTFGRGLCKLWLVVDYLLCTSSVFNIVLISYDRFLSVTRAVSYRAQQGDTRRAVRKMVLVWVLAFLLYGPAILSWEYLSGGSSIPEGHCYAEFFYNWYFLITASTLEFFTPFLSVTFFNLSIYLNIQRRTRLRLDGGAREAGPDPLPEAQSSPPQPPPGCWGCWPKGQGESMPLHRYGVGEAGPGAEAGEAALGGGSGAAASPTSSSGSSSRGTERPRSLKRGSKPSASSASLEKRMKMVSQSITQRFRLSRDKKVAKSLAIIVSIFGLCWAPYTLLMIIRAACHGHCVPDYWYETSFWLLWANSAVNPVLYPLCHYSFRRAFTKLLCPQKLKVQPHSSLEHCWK
Nature of the assay: H3 Receptor Binding Assay. The following applies: guinea pig brain membranes; 3 nM [3H]R-α-methylhistamine or 3 nM [3H]Nα-methylhistamine; 50 mM Tris pH 7.5, 30° C., 30 min. As for the experimental part:
The source of the H3 receptors in this experiment was guinea pig brain. The animals weighed 400-600 g. The brain tissue was homogenized using a Polytron in a solution of 50 mM Tris, pH 7.5. The final concentration of tissue in the homogenization buffer was 10% w/v. The homogenates were centrifuged at 1,000×g for 10 min. in order to remove clumps of tissue and debris. The resulting supernatants were then centrifuged at 50,000×g for 20 min. in order to sediment the membranes, which were next washed three times in homogenization buffer (50,000×g for 20 min. each). The membranes were frozen and stored at -70° C. until needed.
All compounds to be tested were dissolved in DMSO and then diluted into the binding buffer (50 mM Tris, pH 7.5) such that the final concentration was 2 μg/ml with 0.1% DMSO. Membranes were then added (400 μg of protein) to the reaction tubes. The reaction was started by the addition of 3 nM [^3 H]R-α-methylhistamine (8.8 Ci/mmol) or 3 nM [^3 H]N^α -methylhistamine (80 Ci/mmol) and continued under incubation at 30° C. for 30 min. Bound ligand was separated from unbound ligand by filtration, and the amount of radioactive ligand bound to the membranes was quantitated by liquid scintillation spectrometry. All incubations were performed in duplicate and the standard error was always less than 10%. Compounds that inhibited more than 70% of the specific binding of radioactive ligand to the receptor were serially diluted to determine a Ki (nM).
Regarding `O=C(/C=C/c1ccc(Cc2c[nH]cn2)cc1)Nc1ccc(Cl)cc1` [Compound 1], the inhibition constant (Ki) came out at 2 nM.
Take `O=C(/C=C/c1ccc(Cc2c[nH]cn2)cc1)NCc1ccc(Cl)cc1` [Compound 2]: the Ki came out at 23 nM.
Same read-out and setting: as for `O=C(/C=C/c1ccc(Cc2c[nH]cn2)cc1)NCCc1ccc(Cl)cc1` [Compound 3], the figure is 7 nM.
Compound `CN(C(=O)/C=C/c1ccc(Cc2c[nH]cn2)cc1)c1ccc(Cl)cc1` [Compound 4] returned a Ki of 45 nM.
For `CN(CCc1ccc(Cl)cc1)C(=O)/C=C/c1ccc(Cc2c[nH]cn2)cc1` [Compound 5], the affinity, expressed as Ki, was 35 nM.
The same measure, in the same setting: as for `O=C(/C=C/c1ccc(Cc2c[nH]cn2)cc1)Nc1ccccc1` [Compound 6], the figure is 2 nM.
The compound `O=C(/C=C/c1ccc(Cc2c[nH]cn2)cc1)NC1CCCCC1` [Compound 7] returned a Ki of 26 nM.
Consider `O=C(/C=C/c1ccc(Cc2c[nH]cn2)cc1)NCCc1cccc(Cl)c1` [Compound 8], for which the inhibition constant (Ki) is 11 nM.
Still for that read-out and setting: as for `CC(Cc1ccc(Cl)cc1)NC(=O)/C=C/c1ccc(Cc2c[nH]cn2)cc1` (stereo not drawn) [Compound 9], the figure is 10 nM; as for `CC(CNC(=O)/C=C/c1ccc(Cc2c[nH]cn2)cc1)c1ccccc1` (stereo not drawn) [Compound 10], 19 nM.
Still for that read-out and setting: as for `COc1ccc(CCNC(=O)/C=C/c2ccc(Cc3c[nH]cn3)cc2)cc1` [Compound 11], the figure is 7 nM; as for `O=C(/C=C/c1ccc(Cc2c[nH]cn2)cc1)NCCc1c[nH]c2ccccc12` [Compound 12], 45 nM; as for `Cn1cnc(Cc2ccc(/C=C/C(=O)Nc3ccc(Cl)cc3)cc2)c1` [Compound 13], 270 nM.
`O=C(/C=C/c1ccc(Cc2c[nH]cn2)cc1)NCCc1ccsc1` [Compound 15]: the Ki amounted to 12 nM.
Still for that read-out and setting: as for `O=C(/C=C/c1ccc(Cc2c[nH]cn2)cc1)NCCc1cccc(F)c1` [Compound 16], the figure is 10 nM; as for `O=C(/C=C/c1ccc(Cc2c[nH]cn2)cc1)NCCc1cccnc1` [Compound 17], 190 nM.
`O=C(/C=C/c1ccc(Cc2c[nH]cn2)cc1)NCCc1ccccc1F` [Compound 18] had a Ki of 10 nM.
The same measure, in the same setting: as for `O=C(/C=C/c1ccc(Cc2c[nH]cn2)cc1)NCCc1ccccc1Cl` [Compound 19], the figure is 12 nM; as for `O=C(/C=C/c1ccc(Cc2c[nH]cn2)cc1)NCCCN1CCCC1` [Compound 20], 580 nM; as for `O=C(/C=C/c1ccc(Cc2c[nH]cn2)cc1)NCc1ccco1` [Compound 21], 110 nM.
The same measure, in the same setting: as for `Cc1ccc(CCNC(=O)/C=C/c2ccc(Cc3c[nH]cn3)cc2)cc1` [Compound 22], the figure is 6 nM; as for `CC(CCc1ccccc1)NC(=O)/C=C/c1ccc(Cc2c[nH]cn2)cc1` (stereo not drawn) [Compound 23], 37 nM.
Same read-out and setting: as for `O=C(/C=C/c1ccc(Cc2c[nH]cn2)cc1)NC1CCCc2ccccc21` (stereo not drawn) [Compound 24], the figure is 220 nM; as for `O=C(/C=C/c1ccc(Cc2c[nH]cn2)cc1)c1ccc(Cl)cc1` [Compound 25], 400 nM.
In turn, `O=C(/C=C/c1ccc(Cc2c[nH]cn2)cc1)NCc1ccc2ccccc2c1` [Compound 26] displayed a Ki of 200 nM.
The same measure, in the same setting: as for `CN1CCCC1CCNC(=O)/C=C/c1ccc(Cc2c[nH]cn2)cc1` (stereo not drawn) [Compound 27], the figure is 1000 nM; as for `O=C(/C=C/c1ccc(Cc2c[nH]cn2)cc1)NCCc1ccc(Cl)cc1Cl` [Compound 28], 36 nM.
Still for that read-out and setting: as for `O=C(/C=C/c1ccc(Cc2c[nH]cn2)cc1)NCCc1ccccc1` [Compound 29], the figure is 17 nM.
Take `O=C(/C=C/c1ccc(Cc2c[nH]cn2)cc1)Nc1cc(Cl)cc(Cl)c1` [Compound 30]: the Ki came to 12 nM.
`O=C(/C=C/c1ccc(Cc2c[nH]cn2)cc1)Nc1cccc(Cl)c1` [Compound 31] showed a Ki of 4 nM.
Still for that read-out and setting: as for `N#Cc1cccc(NC(=O)/C=C/c2ccc(Cc3c[nH]cn3)cc2)c1` [Compound 32], the figure is 4 nM.
On the same count and under the same terms, as for `COc1cccc(NC(=O)/C=C/c2ccc(Cc3c[nH]cn3)cc2)c1` [Compound 33], the figure is 3 nM; as for `Cc1cc(C)cc(NC(=O)/C=C/c2ccc(Cc3c[nH]cn3)cc2)c1` [Compound 34], 2 nM; as for `O=C(/C=C/c1ccc(Cc2c[nH]cn2)cc1)Nc1cccc(F)c1` [Compound 35], 1 nM.
In turn, `O=C(/C=C/c1ccc(Cc2c[nH]cn2)cc1)Nc1ccc(F)cc1` [Compound 36] came in with a Ki of 5 nM.
Still for that read-out and setting: as for `O=C(/C=C/c1ccc(Cc2c[nH]cn2)cc1)Nc1cccc(OC(F)(F)F)c1` [Compound 37], the figure is 8 nM; as for `O=C(/C=C/c1ccc(Cc2c[nH]cn2)cc1)Nc1ccc(OC(F)(F)F)cc1` [Compound 38], 10 nM.

The test system of the next assay is histamine H3 receptor.
Assay: not given
The following applies: mice, electrically induced convulsions; cited from earlier work.
For `S=C(NC1CCCCC1)N1CCC(c2cnc[nH]2)CC1` [thioperamide], the “duration of each phase of convulsion” value was “decreased” and the electroconvulsive threshold entry is reported as “raised”.
